Measurements published in patent publication EP2548876A1, “New CRTh2 antagonists” (Almirall, S.A., priority 2011, dated 2013).

target: T1, CRTh2 receptor (Homo sapiens, UniProt Q9Y5Y4); test: CRTh2 GTPγS antagonism binding assay; type: biochemical; conditions: membranes from CHO.K1 cells stably overexpressing the CRTh2 receptor; PGD2 at 50 nM (EC80); 0.1 nM [35S]-GTPγS; 1 h pre-incubation with compound, then 2 h at room temperature; read-out: GTPγ Binding
T1 construct: expressed in transfected cells; host or cells: CHO.K1 cells (membranes)
T1 sequence (Q9Y5Y4 1-395): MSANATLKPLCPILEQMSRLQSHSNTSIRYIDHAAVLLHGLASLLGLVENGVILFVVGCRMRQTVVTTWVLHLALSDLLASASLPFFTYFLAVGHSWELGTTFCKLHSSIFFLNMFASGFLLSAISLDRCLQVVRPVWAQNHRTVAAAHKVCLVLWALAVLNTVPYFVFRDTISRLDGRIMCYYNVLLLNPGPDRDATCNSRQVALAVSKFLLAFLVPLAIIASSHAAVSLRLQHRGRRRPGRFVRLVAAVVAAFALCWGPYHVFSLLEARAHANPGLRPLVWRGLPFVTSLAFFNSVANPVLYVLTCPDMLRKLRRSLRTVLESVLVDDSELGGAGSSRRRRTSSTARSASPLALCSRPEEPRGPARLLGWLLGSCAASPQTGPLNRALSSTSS
Protocol: CRTh2 GTPγS antagonism binding assay
The assay is performed using membranes obtained from CHO.K1 cells stably overexpressing the CRTh2 receptor and [^35S]-GTPγS as radioligand. Assay is performed pre-incubating 4-8 µg of membranes per well with the compound to be tested for 1 h, followed by incubation with PGD2 at 50 nM (EC80), 0.1 nM [^35S]-GTPγS in incubation buffer (20 mM HEPES, 10 mM MgCl2, 100 mM NaCl, 10 µM GDP, 10 µg/ml Saponine and 0.2% BSA) for 2 h at room temperature. The reaction is terminated by filtering in GF/C plates pre-treated with 20 mM HEPES, 10 mM MgCl2, 100 mM NaCl and washing 6 times with wash buffer (20 mM NaH2PO4, 20 mM Na2HPO4). After washing, plates are dried and scintillation buffer Optiphase added. The radioactivity retained in the filter is counted using a Microbeta liquid scintillation counter. Compound IC50 are determined using Excel XL-fit for calculations.

IC50 [nM] | Compound
16 | CCN(Cc1cc(C(F)(F)F)ccc1-c1cn(CC(=O)O)c2ccc(C)nc12)C(=O)C1CC1 [Example 3, {3-[2-{[(Cyclopropylcarbonyl)(ethyl)amino]methyl}-4-(trifluoromethyl)phenyl]-5-methyl-1H-pyrrolo[3,2-b]pyridin-1-yl}acetic acid]
13 | CCN(Cc1cc(C(F)(F)F)ccc1-c1cc(CC(=O)O)n2cccnc12)C(=O)C1CC1 [Example 20, {8-[2-{[(Cyclopropylcarbonyl)(ethyl)amino]methyl}-4-(trifluoromethyl)phenyl]pyrrolo[1,2-a]pyrimidin-6-yl}acetic acid]
11 | CCN(Cc1cc(F)ccc1-c1cn(CC(=O)O)c2ccc(C(F)(F)F)nc12)C(=O)C1CC1 [Example 7, [3-(2-{[(Cyclopropylcarbonyl)(ethyl)amino]methyl}-4-fluorophenyl)-5-(trifluoromethyl)-1H-pyrrolo[3,2-b]pyridin-1-yl]acetic acid]
14 | Cc1ccc2c(n1)c(-c1ccc(C(F)(F)F)cc1CN(Cc1ccccc1)C(=O)C1CC1)cn2CC(=O)O [Example 9, {3-[2-{[Benzyl(cyclopropylcarbonyl)amino]methyl}-4-(trifluoromethyl)phenyl]-5-methyl-1H-pyrrolo[3,2-b]pyridin-1-yl}acetic acid]
5 | CCN(Cc1cc(F)ccc1-n1cc(CC(=O)O)c2ccc(C)nc21)C(=O)C1CC1 [Example 16, [1-(2-{[(Cyclopropylcarbonyl)(ethyl)amino]methyl}-4-fluorophenyl)-6-methyl-1H-pyrrolo[2,3-b]pyridin-3-yl]acetic acid]
17 | CCN(Cc1cc(F)ccc1-n1cc(CC(=O)O)c2cccnc21)C(=O)C1CC1 [Example 13, [1-(2-{[(Cyclopropylcarbonyl)(ethyl)amino]methyl}-4-fluorophenyl)-1H-pyrrolo[2,3-b]pyridin-3-yl]acetic acid]
32 | CCN(Cc1cc(C(F)(F)F)ccc1-c1cc(CC(=O)O)c2ccncn12)C(=O)C1CC1 [Example 26, {7-[2-{[(Cyclopropylcarbonyl)(ethyl)amino]methyl}-4-(trifluoromethyl)phenyl]pyrrolo[1,2-c]pyrimidin-5-yl}acetic acid]
10 | CCN(Cc1cc(F)ccc1-c1cn(CC(=O)O)c2cccnc12)C(=O)C1CC1 [Example 2, [3-(2-{[(Cyclopropylcarbonyl)(ethyl)amino]methyl}-4-fluorophenyl)-1H-pyrrolo[3,2-b]pyridin-1-yl]acetic acid]
7 | CCN(Cc1cc(C(F)(F)F)ccc1-c1cc(CC(=O)O)n2ccc(C)nc12)C(=O)C1CC1 [Example 23, {8-[2-{[(Cyclopropylcarbonyl)(ethyl)amino]methyl}-4-(trifluoromethyl)phenyl]-2-methylpyrrolo[1,2-a]pyrimidin-6-yl}acetic acid]
9 | CCN(Cc1cc(C(F)(F)F)ccc1-n1cc(CC(=O)O)c2cccnc21)C(=O)C1CC1 [Example 12, {1-[2-{[(Cyclopropylcarbonyl)(ethyl)amino]methyl}-4-(trifluoromethyl)phenyl]-1H-pyrrolo[2,3-b]pyridin-3-yl}acetic acid]
20 | CCN(Cc1cc(F)ccc1-c1cc(CC(=O)O)n2cccnc12)C(=O)C1CC1 [Example 21, [8-(2-{[(Cyclopropylcarbonyl)(ethyl)amino]methyl}-4-fluorophenyl)pyrrolo[1,2-a]pyrimidin-6-yl]acetic acid]
6 | CCN(Cc1cc(C(F)(F)F)ccc1-c1cc(CC(=O)O)n2ccc(C(F)(F)F)nc12)C(=O)C1CC1 [Example 22, [8-[2-{[(Cyclopropylcarbonyl)(ethyl)amino]methyl}-4-(trifluoromethyl)phenyl]-2-(trifluoromethyl)pyrrolo[1,2-a]pyrimidin-6-yl]acetic acid]
15 | CCN(Cc1cc(C(F)(F)F)ccc1-c1cn(CC(=O)O)c2cccnc12)C(=O)C1CC1 [Example 1, {3-[2-{[(Cyclopropylcarbonyl)(ethyl)amino]methyl}-4-(trifluoromethyl)phenyl]-1H-pyrrolo[3,2-b]pyridin-1-yl}acetic acid]
5 | CCN(Cc1ccccc1-n1cc(CC(=O)O)c2ccc(C)nc21)C(=O)C1CC1 [Example 17, [1-(2-{[(Cyclopropylcarbonyl)(ethyl)amino]methyl}phenyl)-6-methyl-1H-pyrrolo[2,3-b]pyridin-3-yl]acetic acid]
18 | CCN(Cc1cc(C(F)(F)F)ccc1-c1cn(C(C)C(=O)O)c2ccc(C)nc12)C(=O)C1CC1 (stereo not drawn) [Example 6, 2-{3-[2-{[(Cyclopropylcarbonyl)(ethyl)amino]methyl}-4-(trifluoromethyl)phenyl]-5-methyl-1H-pyrrolo[3,2-b]pyridin-1-yl}propanoic acid]
